Results on six compounds are retold here after patent publication US7285666B2, “Pyrazolo[1,5-a] pyridines and medicines containing the same” (Eisai R&D Management Co., Ltd., priority 2001, dated 2007).

In experiment [1] the test system is CRF-dependent cAMP production in AtT-20 cells. The experiment in a line: cAMP production inhibition experiment using AtT-20 cells. The conditions noted are these: Mus musculus, AtT20, 30 nM CRF, intracellular cAMP by HTRF, read-out: Adenylate cyclase activity IC50. Format: cell-based. An excerpt:
<cAMP Production Inhibition Experiment Using AtT-20 Cells>
The AtT-20 cells were of a mouse pituitary gland tumor-derived cell line which is known to respond to Corticotropin-Releasing Factor (CRF), leading to activation of the intracellular adenylate cyclase system, production of cyclic AMP (cAMP), and release of adenocorticotropic hormone (ACTH) (Biochem. Biophys. Res. Com. 106, 1364-1371, 1982). For the experiment, the cells (1×10^5) were suspended in D-MEM medium (0.1% FBS) and seeded in a 96-well plate, phosphodiesterase inhibitor (IBMX, Calbiochem) was added to a final concentration of 1 mM, and were cultured at 37° C. for 30 minutes. A dilution of the test compound was added, culturing was continued for 30 minutes at 37° C., and CRF (30 nM) was added and culturing was continued for 30 minutes at 37° C. The cells were collected by centrifugation (500×g, 5 minutes) and lysed with lysis buffer (0.2% dodecyltrimethylammonium bromide), and the intracellular cAMP production was quantified by the HTRF method. A cAMP kit HTRF (CIS Diagnostics Co., Ltd.) was used for the cAMP quantification.
(2) Calculation of cAMP Production Inhibition
The cAMP production of cells to which 30 nM CRF had been added was defined as 100% (control), and the value for each specimen was represented as a percentage (% of control).
Background: Cyclic AMP is a second messenger, typically raised through Gs and lowered through Gi signalling.

The target of a further experiment is T1, human CRFR1 (Homo sapiens, UniProt P34998).
T1 construct: The full-length CRFR1 gene was obtained from a human brain cDNA library (QuickClone™, Clontech) by PCR; expressed in transfected cells
T1 sequence (P34998 24-415): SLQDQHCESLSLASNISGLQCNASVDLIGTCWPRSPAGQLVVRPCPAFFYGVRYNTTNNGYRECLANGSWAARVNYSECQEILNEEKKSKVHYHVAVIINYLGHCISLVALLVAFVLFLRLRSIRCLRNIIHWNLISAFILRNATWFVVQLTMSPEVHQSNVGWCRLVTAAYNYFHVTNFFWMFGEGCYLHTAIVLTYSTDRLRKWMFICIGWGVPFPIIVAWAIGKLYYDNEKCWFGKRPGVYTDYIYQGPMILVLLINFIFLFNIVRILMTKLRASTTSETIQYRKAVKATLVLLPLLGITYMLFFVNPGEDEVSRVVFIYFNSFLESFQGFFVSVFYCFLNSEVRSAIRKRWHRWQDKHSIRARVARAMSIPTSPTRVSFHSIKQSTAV
The experiment is described as follows: CRFR binding experiment (125I-sauvagine SPA, membrane fraction of CRFR1-expressing HEK293 cells). The conditions noted are these: 125I-sauvagine displacement, read-out: CRF1 receptor binding affinity IC50. As for the experimental part:
<CRFR Binding Experiment>
(1) Preparation of CRFR-Expressing Cells
Membrane fraction of the cell highly expressing human CRFR1 was used as the experimental material for a CRFR binding experiment. The CRFR expressing cells were prepared in the following manner. The full-length CRFR1 gene was obtained from a human brain cDNA library (QuickClone™, Clontech) by PCR. The obtained DNA fragments were inserted into cloning vectors and the base sequences were determined. cDNA having the correct base sequence was then relinked to an expression vector (pcDNA3.1™, Invitrogen). The CRFR1 expression vector was introduced into HEK293 cells, and the resistant cells which grew in cell medium containing G418 (1 mg/ml) were cloned by limiting dilution. From these cloned cells, the clones with high binding affinity between the membrane fraction and sauvagine per unit of protein in the binding experiment described below were selected out and used for the final experiment.
(2) Preparation of Membrane Fraction
The cloned cells obtained in (1) were collected and disrupted with an ultrasonic generator in sonicate buffer (D-PBS(−) 10 mM MgCl2, 2 mM EGTA). The suspension obtained from ultrasonic disruption was centrifuged (46,000×g, 10 minutes), and the precipitate was resuspended in sonicate buffer and the same procedure was repeated. The final precipitate was then suspended in binding buffer (D-PBS(−) 10 mM MgCl2, 2 mM EGTA, 1.5% BSA, 0.15 mM bacitracin, 1× protease inhibitor cocktail (COMPLETE™, Boehringer)), and used as the membrane fraction after adjusting the protein concentration to 1.6 mg/ml.
The sauvagine binding experiment was conducted following the protocol of SPA™ (Amersham Pharmacia), using a 96-well plate. The experiment was conducted according to the SPA beads instruction manual. After allowing […] of the membrane fraction protein, 0.5 mg of SPA beads and […] of ^125I-sauvagine (Amersham Pharmacia) to stand at room temperature for 2 hours in the presence of the test compound, the mixture was centrifuged (1000×g, 5 minutes) and the radioactivity of each well was measured with a TopCount™ (Packard).
(4) Calculation of Binding Affinity
The radioactivity for non-radioactive sauvagine added in a 1000-fold excess was subtracted from each value as the non-specific binding, and the radioactivity of a sample without addition of the test substance (control) was defined as 100%, with each value represented as a percentage (% of control).

Turning to `CCCN(CCC)c1c(CC)nn2c(-c3ccc(OC)cc3Cl)cccc12` [Example 3, N-[7-(2-Chloro-4-methoxyphenyl)-2-ethylpyrazolo[1,5-a]pyridin-3-yl]-N,N-dipropylamine], the IC50 (in general, the concentration that gives 50% inhibition) in experiment [1] came out at 130 nM. With `CCCN(CCC)c1c(CC)nn2c(-c3ccc(OC)cc3OC)cccc12` [Example 6, N-[7-(2,4-Dimethoxyphenyl)-2-ethylpyrazolo[1,5-a]pyridin-3-yl]-N,N-dipropylamine], the figures for the IC50 (on human CRFR1; in experiment [1]) were 160 nM and 200 nM, respectively. Take `CCCN(CCOC)c1c(CC)nn2c(-c3ccc(Cl)cc3Cl)cccc12` [Example 25, N-[7-(2,4-Dichlorophenyl)-2-ethylpyrazolo[1,5-a]pyridin-3-yl]-N-(2-methoxyethyl)-N-propylamine]: the values for the IC50 (at human CRFR1; in experiment [1]) were 210 nM and 550 nM, respectively. On to `CCc1nn2c(-c3ccc(Cl)cc3Cl)cccc2c1N(CCOC)CC(C)C` [Example 27, N-[7-(2,4-Dichlorophenyl)-2-ethylpyrazolo[1,5-a]pyridin-3-yl]-N-isobutyl-N-(2-methoxyethyl)amine], for which the IC50 worked out at 55 nM on human CRFR1 and 300 nM in experiment [1]. `CCCN(CCC)c1c(SC)nn2c(-c3ccc(Cl)cc3Cl)cccc12` [Example 103, N-[7-(2,4-Dichlorophenyl)-2-methylthiopyrazolo[1,5-a]pyridin-3-yl]-N,N-dipropylamine]: the IC50 at human CRFR1 came out at 90 nM; in experiment [1], 400 nM. As to `COCCN(CC(C)C)c1c(SC)nn2c(-c3c(C)cc(C)cc3OC)cccc12` [Example 108, N-Isobutyl-N-[7-(2-methoxy-4,6-dimethylphenyl)-2-(methylsulfanyl)pyrazolo[1,5-a]pyridin-3-yl]-N-(2-methoxyethyl)amine], the IC50 at human CRFR1 stood at 50 nM; in experiment [1], 20 nM.
